{"source": "a melting point compilation (Tetko et al.; mined from patent text by program, amines drawn as free bases though some values may be those of a salt)", "data": [{"units": {"melting point": "°C"}, "values": [{"smiles": "CC1(C)COc2cc3ccccc3c(=O)n21", "melting point": "91 to 92"}, {"smiles": "O=C(Nc1cc(F)ccc1O)c1cc(Cl)c(O)c(Cl)c1", "melting point": "227 to 229"}, {"smiles": "N#CC(C#N)=CN(N=C(C#N)C#N)c1ccc(F)cc1F", "melting point": "140 to 142"}, {"smiles": "COc1ccc(-c2ccc(C(=O)O)cc2)cc1F", "melting point": 253}, {"smiles": "CCc1nc(-c2cccc(C)c2)c(-c2ccnc(NC(=O)Cc3ccccc3)c2)s1", "melting point": "107 to 108"}, {"smiles": "COc1ccc([N+](=O)[O-])c(F)c1", "melting point": "47 to 49"}, {"smiles": "COc1ccc(/C=C/c2nc3c([nH]2)c(=O)n(C)c(=O)n3C)c(OC)c1OC", "melting point": "265 to 266"}, {"smiles": "CC(C)c1ccc(-c2nc(Cl)c(C=O)n2Cc2ccc(-c3ccccc3S(=O)(=O)N=CN(C)C)cc2)cc1", "melting point": 177}, {"smiles": "O=c1[nH]nc(-c2ccc(OC3CCN(C4CCC4)CC3)cc2)c2c1CCC2", "melting point": "210 to 213"}, {"smiles": "CN1C=NN(c2cccc(N)c2)N1", "melting point": "93 to 95"}, {"smiles": "CC(C)Cn1c(-c2c(F)cccc2F)c(Cl)nc(-n2cccn2)c1=O", "melting point": "118 to 119"}, {"smiles": "CN1CCCC(COc2ccc(C(=O)NN)cc2)C1", "note": "(stereo unspecified)", "melting point": "170 to 172"}, {"smiles": "C[C@H]1N(C(=O)c2ccc(OCC(F)(F)C(F)F)cc2)CC(O)O[C@@]1(Cn1cncn1)c1ccc(F)cc1F", "note": "(relative stereo)", "melting point": "209 to 210"}, {"smiles": "CCN(CCc1ccc(Nc2ncc3c(n2)-c2ccccc2C(c2cccc(Br)c2)C3)cc1)Cc1ccncc1", "note": "(stereo unspecified)", "melting point": "88 to 90"}, {"smiles": "Cc1c(C)c2c(c(C)c1OCc1ccccc1)C(c1ccc(C(C)C)cc1)C(C)(C)O2", "note": "(stereo unspecified)", "melting point": "79 to 81"}, {"smiles": "O=S1(=O)N(CCBr)c2ccccc2N1c1ccc(Cl)cc1", "melting point": "86 to 89"}, {"smiles": "Oc1c(Br)cc2oc3ccccc3c2c1Br", "melting point": "176 to 178"}, {"smiles": "COc1cc(COc2nn(C)cc2C(C)O)ccc1OCc1nc(-c2ccccc2)oc1C", "note": "(stereo unspecified)", "melting point": "94 to 95"}, {"smiles": "Cc1ccc([N+](=O)[O-])c(C(=O)N[C@@H]2c3cc(OC(F)(F)F)ccc3OC(C)(C)[C@H]2O)c1", "melting point": "185 to 187"}, {"smiles": "Cc1ccc(-c2nc(C)c(-c3ccnc(Nc4ccc(N5CCOCC5)cc4)n3)s2)cn1", "melting point": "244 to 245"}, {"smiles": "CN1CCCCC1CCc1ccccc1NC(=O)c1ccc(F)cc1", "note": "(stereo unspecified)", "melting point": 116}, {"smiles": "COCC1CN(CCOc2ccc(NC(=O)Nc3cc(C(C)(C)C)nn3-c3ccc(C)cc3)c3ccccc23)CCO1", "note": "(stereo unspecified)", "melting point": "85 to 90"}, {"smiles": "COC(=O)c1[nH]ccc1O", "melting point": "100 to 102"}, {"smiles": "CCc1nc2c(N)nc3cc(Br)cnc3c2n1CC(C)(C)O", "melting point": "235 to 236"}, {"smiles": "O=C1C(Cl)=C(N2CCN(c3nc4ccccc4o3)CC2)C(=O)c2nsnc21", "melting point": "233 to 235"}, {"smiles": "CCCCCCCCCCc1csc2c1sc1c2sc2c3scc(CCCCCCCCCC)c3sc21", "melting point": 108}, {"smiles": "CCCCCC(=O)Nc1ccc(C(=O)NN=C2C(=O)Nc3ccc(I)cc32)cc1", "melting point": 305}, {"smiles": "CN(C)C(=O)Nc1ccc(Oc2ccc3c(c2)OC(C)(C)CC3)cc1", "melting point": "137 to 138"}, {"smiles": "Cc1ccnc2c1N(O)C(=O)c1cccnc1N2C1CC1", "melting point": "239 to 241"}, {"smiles": "COc1cc(N2CCCCC2)c(Cl)cc1CC(=O)O", "melting point": "120 to 122"}, {"smiles": "CCCCc1nc2ccccn2c(=O)c1-c1ccc(Cl)c(OC)c1", "melting point": "113 to 115"}, {"smiles": "CCOC(=O)c1cn(C2CC2)c2nc(N3CCC(n4ccnn4)CC3)c(F)cc2c1=O", "melting point": "213 to 214"}, {"smiles": "CC(O)c1ccc(CCOc2ccc(CC3SC(=O)NC3=O)cc2)nc1", "note": "(stereo unspecified)", "melting point": "155 to 156"}, {"smiles": "Cc1ncc(CCCOc2c(C)cc(-c3noc(C(F)(F)F)n3)cc2C)s1", "melting point": "62 to 64"}, {"smiles": "Cc1cc(NCc2ccc(Oc3ccc4ncc([N+](=O)[O-])n4n3)c(OCC3CC3)c2)nc(C)n1", "melting point": "113 to 118"}, {"smiles": "CCCCCCCCCCCCNC(=O)CSCc1cc(C(C)(C)C)c(O)c(C(C)(C)C)c1", "melting point": "43 to 46"}, {"smiles": "Clc1cc(C(Cl)(Cl)Cl)c(Cl)cc1C(Cl)(Cl)Cl", "melting point": "202 to 203"}, {"smiles": "CC(=O)NC[C@H]1CN(c2ccc(C3CCN(C(=O)CO)CC3)cc2)C(=O)O1", "melting point": "155 to 157"}, {"smiles": "CC(C)(C)OC(=O)c1ccc2cncn2c1", "melting point": 77}, {"smiles": "Cc1cccc(NC(=O)NCC(=O)N(CC(=O)NC(C)(C)C)c2ccccc2)c1", "melting point": 214}, {"smiles": "COC(=O)c1ccc(Nc2nccc(-c3ccncc3)n2)cc1", "melting point": "194 to 196"}, {"smiles": "COc1cc(C2c3cc4c(cc3C(NC3=CC(=O)N(Cc5ccc(NC(C)=O)cc5)C3=O)C3COC(=O)C23)OCO4)cc(OC)c1O[Si](C)(C)C(C)(C)C", "note": "(stereo unspecified)", "melting point": "177 to 179"}, {"smiles": "C=CCc1cc(C(C)=O)c(NC(C)=O)cc1O", "melting point": "172 to 174"}, {"smiles": "Fc1ccc(Cn2c(NC3CCN(CCOc4ccc5ccccc5n4)CC3)nc3ccccc32)cc1", "melting point": 150}, {"smiles": "COc1cc(C(=O)COC(C)=O)ccc1OCCCN1CCC(C(O)(c2ccc(F)cc2)c2ccc(F)cc2)CC1", "melting point": "138 to 140"}, {"smiles": "COc1nc(Cc2nn(C)c(C)c2NS(=O)(=O)C(F)(F)F)nc(OC)n1", "melting point": 145}, {"smiles": "Cc1cccc(-c2sc(NC(=O)Nc3ccccc3)nc2-c2cc(C)nc(C)c2)c1", "melting point": "173 to 174"}, {"smiles": "CC(=O)Oc1ccc2c(=O)c(C#N)c(C)oc2c1", "melting point": "140 to 141"}, {"smiles": "COc1ccc(C(=O)c2ccc(OC)c([N+](=O)[O-])c2)cc1[N+](=O)[O-]", "melting point": "189 to 190"}, {"smiles": "Cn1nc(-c2ncc(Cl)cc2F)c(I)c1OC(F)F", "melting point": "77 to 78"}, {"smiles": "O=C1C=C(Nc2c(Br)cccc2Br)CCN1", "melting point": "240 to 243"}, {"smiles": "CC(C)(C)Nc1c(Nc2ccc3cn[nH]c3c2)c(=O)c1=O", "melting point": "183 to 185"}, {"smiles": "COc1cc(C=O)cc2c1OC1(CCCC1)C2", "melting point": 54}, {"smiles": "O=C1NCCCc2cc(CCN3CCC(c4noc5cc(F)ccc45)CC3)sc21", "melting point": "192 to 194"}, {"smiles": "O=C(O)COc1ccc2c(c1)OCO2", "melting point": "149 to 151"}, {"smiles": "O=[N+]([O-])c1ccc(C(O)c2ccccn2)c(Cl)c1", "note": "(stereo unspecified)", "melting point": "124 to 127"}, {"smiles": "O=CNc1cc(Cl)ccc1C=O", "melting point": "131 to 136"}, {"smiles": "NCc1ccc(-c2nc(-c3ccccc3)c(-c3ccncc3)[nH]2)cc1", "melting point": "214 to 215"}, {"smiles": "Cc1c(C)n(Cc2ccccc2)c2ncnc(Nc3cccc(Cl)c3)c12", "melting point": "132 to 133"}, {"smiles": "COc1ccc(Cl)cc1NC(=O)[C@H]1[C@H](c2ccc(S(N)(=O)=O)cc2)C12CCCC2", "note": "(relative stereo)", "melting point": "210 to 212"}, {"smiles": "Cc1cccc(Nc2cc(Nc3ccc(OCC(=O)N(CCO)CCO)cc3)ncn2)c1", "melting point": "160 to 162"}, {"smiles": "CCOC(=O)c1nc(C2CC2)nc(N)c1/C=C/[Si](C)(C)C", "melting point": "99 to 101"}, {"smiles": "CCc1cccc2c1N(CC(=O)N1CC3CCC(CC3)C1)C(=O)C(NC(=O)Nc1cccc(C)c1)N=C2c1ccccc1F", "note": "(stereo unspecified)", "melting point": "163 to 168"}, {"smiles": "Cc1ccc([N+](=O)[O-])c(CO)c1C", "melting point": "48 to 51"}, {"smiles": "O=S(=O)(NCC1CCN(C[C@H]2COc3ccc(Cl)cc3O2)CC1)c1c(F)cccc1F", "melting point": "122 to 124"}, {"smiles": "COC(=O)c1cccnc1NS(=O)(=O)NC(C)C", "melting point": "121 to 123"}, {"smiles": "CC(C)(C)N(Cc1ccccc1)C(=O)C=c1sc2n(c1=O)Cc1ccccc1N=2", "melting point": "195 to 197"}, {"smiles": "CCOC(=O)C=C1CN(C)C(=O)c2ccccc2N1", "melting point": "154 to 155"}, {"smiles": "CCCCN(CCCC)CCCOc1ccc(C(=O)c2c(-c3ccccc3)cc3ccccn23)cc1", "melting point": "92 to 93.5"}, {"smiles": "Cc1cc(-c2cc(C(F)F)n3ncc(C(=O)Nc4cccc(S(=O)(=O)N5CCCC5)c4)c3n2)ccc1C(F)(F)F", "melting point": 226}, {"smiles": "CC(C)(C)OC(=O)N1CCN(CC(O)CNc2ccc(CC#N)cc2)CC1", "note": "(stereo unspecified)", "melting point": "86 to 87"}, {"smiles": "CCN(CC)C(=O)NC1C=C2c3cccc4[nH]c(Br)c(c34)CC2N(C)C1", "note": "(stereo unspecified)", "melting point": "204 to 208"}, {"smiles": "CCCn1c(=O)n([C@@H]2CCN(CCCCN3C(=O)c4cc(Cl)ccc4S3(=O)=O)[C@@H](C#N)C2)c2ccccc21", "note": "(relative stereo)", "melting point": "159 to 160"}, {"smiles": "CCn1c(C)cc(=O)nc1S", "melting point": 190}, {"smiles": "CN1CC(CCCl)Oc2cc(Cl)ccc2C1=O", "note": "(stereo unspecified)", "melting point": "85 to 87"}, {"smiles": "COCCN(C)Cc1c(-c2ccc(NC(=O)NOC)cc2)sc2c1c(=O)n(-c1ccc3c(c1)OCCO3)c(=O)n2Cc1c(F)cccc1F", "melting point": "155 to 156"}, {"smiles": "CNc1nc(Nc2ccc(S(C)=O)cc2)ncc1[N+](=O)[O-]", "note": "(stereo unspecified)", "melting point": 288}, {"smiles": "Cc1ccc2c(c1)CC(=S)N2C", "melting point": "143 to 145"}, {"smiles": "Cc1ccc(C2=NNC(=O)CC2)c(OCC(O)CNC(C)(C)C)c1", "note": "(stereo unspecified)", "melting point": 130}, {"smiles": "Cc1cc(N2N=CCNC2=O)cc(Cl)c1Cc1ccc(Cl)cc1", "melting point": "209 to 210"}, {"smiles": "CCOC(=O)C(=O)c1cn(CC)c2cc(-c3ccc(OC(F)(F)F)cc3)ccc12", "melting point": "114 to 116"}, {"smiles": "CC(C)C(C(=O)OCc1nn(Cc2ccccc2)c(=O)o1)c1ccc(Cl)cc1", "note": "(stereo unspecified)", "melting point": 70}, {"smiles": "COc1cc(COc2nn(-c3ccccc3)cc2C(=O)O)ccc1OCc1nc(-c2ccccc2)oc1C", "melting point": "209 to 210"}, {"smiles": "O=C(O)c1cc(OCCCCCCCCCCCCOc2ccccc2)ccc1OCc1ccccc1", "melting point": "85 to 87"}, {"smiles": "NNC1=Nc2ccc(Cl)cc2C(c2ccccc2F)S(=O)(=O)CC1", "note": "(stereo unspecified)", "melting point": 159}, {"smiles": "O=[N+]([O-])c1cccc(O)c1Cl", "melting point": 130}, {"smiles": "O=S(=O)(CC(O)(CI)c1ccccc1)c1ccccc1", "note": "(stereo unspecified)", "melting point": 98}, {"smiles": "COc1ccc(C)cc1NC(=O)Nc1ccc2c(c1)CCN(C(=O)Oc1ccc(CCO)cc1Cl)C2", "melting point": "95 to 98"}, {"smiles": "O=C(O)c1ccc(CN(C2CCOCC2)S(=O)(=O)c2ccc(Cl)cc2)cc1", "melting point": "218 to 219"}, {"smiles": "COc1cc(O[Si](C)(C)C(C)(C)C)c(C)c(C(=O)O)c1Br", "melting point": "120 to 125"}, {"smiles": "CC(SC1COC(C=CC=Cc2ccc(C#N)cc2F)OC1)C(O)(Cn1cncn1)c1ccc(F)cc1F", "note": "(stereo unspecified)", "melting point": "111 to 112"}, {"smiles": "Cn1ccc2cc(NC(=O)c3cc4cc(F)ccc4n3Cc3cccc(F)c3)ccc21", "melting point": "187 to 189"}, {"smiles": "COc1ccc2c(=O)[nH]c(-c3cc(C)c(OCCN4CCCC4)c(C)c3)nc2c1", "melting point": "218 to 220"}, {"smiles": "NC(=O)[C@H]1CCC[C@H]1C(=O)O", "note": "(relative stereo)", "melting point": "132 to 133"}, {"smiles": "CNc1nc(-c2ccc(-c3ccccc3)s2)c2cc(OC)c(OC)cc2n1", "melting point": "201 to 203"}, {"smiles": "Cc1ccc(C(=C/C=C/C(=O)Oc2ccc([N+](=O)[O-])cc2)c2ccc(C)cc2)cc1", "melting point": 154}]}]}
